pIC50: −log10 of the molar value.
Test system: 186277-243-T-J2-PDC multi-cell spheroid viability
Test: Anticancer human tumor 186277-243-T-J2-PDC patient-derived colon adenocarcinoma cell line growth inhibition [PI3K]
Conditions: for pIC50: curve of first compound; for viability, T/C: stronger effect = lower value; active means viability on the fitted dose curve at most 10% of control; inactive means the rest
Description: Combinatorial screen of targeted agents with the PI3K inhibitors inavolisib, alpelisib, duvelisib, and copanlisib in multi-cell type tumor spheroids
A high-throughput screen of multi-cell type tumor spheroids was designed to identify active combinations of targeted small molecules and PI3K pathway inhibitors. Complex spheroids include a stromal component modeled by human endothelial cells (HUVEC) and fibroblasts modeled by human mesenchymal stem cells (MSCs). The concentration ranges selected for each drug and investigational agent were based upon clinically achievable concentrations if the clinical Cmax of the agent was known.
Compounds. The drugs and investigational agents: inavolisib (NSC800729), alpelisib (NSC765974), duvelisib (NSC772469), copanlisib (NSC816437), ipatasertib (NSC767898), afuresertib (NSC778305), talazoparib (NSC767125), sapanisertib (NSC764658), selumetinib (NSC741078), tovorafenib (DAY101, NSC766906), vemurafenib (NSC761431), ravoxertinib (NSC781343), sotorasib (NSC818433), MRTX1133 (NSC 836407), abemaciclib (NSC 768073), palbociclib (NSC758247), venetoclax (NSC 766270), SY5609 (NSC837396), enzalutamide (NSC755605), and darolutamide (NSC825331), were obtained from the National Cancer Institute (NCI) Developmental Therapeutics Program Chemical Repository. The FDA-approved anticancer drug set is available from the NCI Developmental Therapeutics Program. […] The stock solutions were prepared in dimethyl sulfoxide (DMSO, Sigma-Aldrich, St. Louis, MO, cat. D2650) at 800-fold the tested concentration and stored at -70 degrees C prior to their use. All drugs and investigational agents were tested over a range starting from a high concentration at or near the clinical Cmax and decreasing in half-log increments. If the clinical Cmax for an agent had not been determined, the highest concentration tested was 10 microM.
Cell Culture. All cells were maintained in an incubator at 37 degrees C and 5% CO2 with 95% humidity. The PDC lines were cultured according to standard operating procedures established by the NCI PDMR (https://pdmr.cancer.gov/sops/default.htm). All PDCs were thawed and cultured in Matrigel-coated flasks prepared with a working solution of 1X Ham's F-12 nutrient mix, without supplementation (Invitrogen, Waltham, MA, cat. 11765054), 100 U/mL penicillin-streptomycin (Invitrogen, cat. 15140122), and 2.5% Matrigel (Corning Inc., Corning, NY, cat. 354248) for the first three passages. The 354836-022-R-J1-PDC, 475296-252-R-J1-PDC, and 997726-040-R-J2-PDC lines were cultured in 6A media, which includes advanced DMEM/F-12 (Thermo Fisher Scientific, cat. 12634028), 10 mM HEPES (Thermo Fisher Scientific, cat. 15630080), 1X GlutaMAX supplement (Thermo Fisher Scientific, cat. 35050061), 0.1 mg/mL primocin (InvivoGen, San Diego, CA, cat. ant-pm-2), 10% defined fetal bovine serum, heat inactivated (HyClone Laboratories Inc., Logan, UT, cat. SH30070.03HI), 50% L-WRN conditioned media (ATCC, cat. CRL-3276), 1.25 mM N-Acetyl-L-cysteine (Sigma-Aldrich, cat. A9165), 10 mM nicotinamide (Sigma-Aldrich, cat. N0636), 1X B-27 supplement (Thermo Fisher Scientific, cat. 17504044), 1X N-2 supplement (Thermo Fisher Scientific, cat. 17502048), and 10 microM Y-27632 dihydrochloride (Tocris Bioscience, Bristol, United Kingdom, cat. 1254). The 624824-186-R-J2-PDC line was cultured in 6C/Colon 1B media, which includes all 6A media components plus 50 ng/mL human EGF recombinant protein (Thermo Fisher Scientific, cat. PHG0311). […]

[1] = second compound 0.0316 µM, first compound 0.0316 µM
[2] = second compound 0.0316 µM, first compound 0.1 µM
[3] = second compound 0.0316 µM, first compound 0.316 µM
[4] = second compound 0.0316 µM, first compound 1 µM
[5] = second compound 0.0316 µM, first compound 3.16 µM
[6] = second compound 0.0316 µM, first compound 10 µM
[7] = second compound 0.1 µM, first compound 0.0316 µM
[8] = second compound 0.1 µM, first compound 0.1 µM
[9] = second compound 0.1 µM, first compound 0.316 µM
[10] = second compound 0.1 µM, first compound 1 µM
[11] = second compound 0.1 µM, first compound 3.16 µM
[12] = second compound 0.1 µM, first compound 10 µM
[13] = second compound 0.316 µM, first compound 0.0316 µM
[14] = second compound 0.316 µM, first compound 0.1 µM
[15] = second compound 0.316 µM, first compound 0.316 µM
[16] = second compound 0.316 µM, first compound 1 µM
[17] = second compound 0.316 µM, first compound 3.16 µM
[18] = second compound 0.316 µM, first compound 10 µM
[19] = second compound 1 µM, first compound 0.0316 µM
[20] = second compound 1 µM, first compound 0.1 µM
[21] = second compound 1 µM, first compound 0.316 µM
[22] = second compound 1 µM, first compound 1 µM
[23] = second compound 1 µM, first compound 3.16 µM
[24] = second compound 1 µM, first compound 10 µM
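Further: spheroids exposed to compounds for seven days before viability reading.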

CC1(C)CCC(Nc2ncc(C(F)(F)F)c(-c3c[nH]c4c(P(C)(C)=O)c(C#N)ccc34)n2)CN1 (centres undefined) + COc1c(OCCCN2CCOCC2)ccc2c3n(c(=NC(=O)c4cnc(N)nc4)nc12)CCN3
> 7.50: pIC50 (second compound 0.0316 µM) | pIC50 (second compound 0.1 µM) | pIC50 (second compound 0.316 µM) | pIC50 (second compound 1 µM)
5.91: pIC50 (second compound 0.01 µM)
5.44: pIC50 (second compound 0.00316 µM)
active: viability, T/C (second compound 0.00316 µM, first compound 10 µM) 0.33% | viability, T/C (second compound 0.01 µM, first compound 10 µM) 0.85% | viability, T/C [6] 1.27% | viability, T/C [7] 7.6% | viability, T/C [8] 10.5% | viability, T/C [9] 7.54% | viability, T/C [10] 6.56% | viability, T/C [11] 5.27% | viability, T/C [12] 1.02% | viability, T/C [13] 2.73% | viability, T/C [14] 3.91% | viability, T/C [15] 3.66% | viability, T/C [16] 3.38% | viability, T/C [17] 1.31% | viability, T/C [18] 0.34% | viability, T/C [19] 2.08% | viability, T/C [20] 1.57% | viability, T/C [21] 1.5% | viability, T/C [22] 1.26% | viability, T/C [23] 1.04% | viability, T/C [24] 0.42%
inactive: viability, T/C (second compound 0.00316 µM, first compound 0.0316 µM) 64.8% | viability, T/C (second compound 0.00316 µM, first compound 0.1 µM) 57.4% | viability, T/C (second compound 0.00316 µM, first compound 0.316 µM) 52% | viability, T/C (second compound 0.00316 µM, first compound 1 µM) 55.4% | viability, T/C (second compound 0.00316 µM, first compound 3.16 µM) 56.2% | viability, T/C (second compound 0.01 µM, first compound 0.0316 µM) 71.5% | viability, T/C (second compound 0.01 µM, first compound 0.1 µM) 54.7% | viability, T/C (second compound 0.01 µM, first compound 0.316 µM) 50.8% | viability, T/C (second compound 0.01 µM, first compound 1 µM) 54.1% | viability, T/C (second compound 0.01 µM, first compound 3.16 µM) 40.6% | viability, T/C [1] 37.3% | viability, T/C [2] 36.6% | viability, T/C [3] 26.8% | viability, T/C [4] 25.9% | viability, T/C [5] 14.5%

CCCS(=O)(=O)Nc1ccc(F)c(C(=O)c2c[nH]c3ncc(-c4ccc(Cl)cc4)cc23)c1F + Cc1nc(NC(=O)N2CCCC2C(N)=O)sc1-c1ccnc(C(C)(C)C(F)(F)F)c1
5.31: pIC50 (second compound 1 µM)
5.27: pIC50 (second compound 0.0316 µM) | pIC50 (second compound 0.1 µM)
inactive: viability, T/C [1] 88.2% | viability, T/C [2] 76.7% | viability, T/C [3] 88.5% | viability, T/C [4] 89.2% | viability, T/C [5] 89% | viability, T/C [7] 98.1% | viability, T/C [8] 105% | viability, T/C [9] 89.6% | viability, T/C [10] 94.9% | viability, T/C [11] 87.2% | viability, T/C [13] 113% | viability, T/C [14] 103% | viability, T/C [15] 89.2% | viability, T/C [16] 88% | viability, T/C [17] 78.7% | viability, T/C [19] 95.8% | viability, T/C [20] 104% | viability, T/C [21] 98.5% | viability, T/C [22] 91.9% | viability, T/C [23] 76.5% | viability, T/C (second compound 3.16 µM, first compound 0.0316 µM) 67.6% | viability, T/C (second compound 3.16 µM, first compound 0.1 µM) 81.6% | viability, T/C (second compound 3.16 µM, first compound 0.316 µM) 81.1% | viability, T/C (second compound 3.16 µM, first compound 1 µM) 82% | viability, T/C (second compound 3.16 µM, first compound 3.16 µM) 65.6% | viability, T/C (second compound 10 µM, first compound 0.0316 µM) 15.2% | viability, T/C (second compound 10 µM, first compound 0.1 µM) 17.1% | viability, T/C (second compound 10 µM, first compound 0.316 µM) 26.6% | viability, T/C (second compound 10 µM, first compound 1 µM) 35.3% | viability, T/C (second compound 10 µM, first compound 3.16 µM) 38.8% | viability, T/C (second compound 10 µM, first compound 10 µM) 2.29%
5.37: pIC50 (second compound 3.16 µM)
5.32: pIC50 (second compound 0.316 µM)
> 7.50: pIC50 (second compound 10 µM)
active: viability, T/C [6] 8.5% | viability, T/C [12] 7.3% | viability, T/C [18] 7.15% | viability, T/C [24] 6.14% | viability, T/C (second compound 3.16 µM, first compound 10 µM) 5.53%
